This note sets out measurements from EP1900728A1 (Genecare Research Institute Co., Ltd, priority 2005, dated 2006).

Experiment [1] concerns the target T1, IκBα ubiquitinating enzyme (SCF complex: ROC1, Cullin1, Skp1, His-TrCP1; with E1, UbcH5b) (Homo sapiens, UniProt P62877+P63208+Q13616+Q9Y297).
T1 construct: His (polyhistidine); made in house; host or cells: insect cells (baculovirus) for the SCF complex and His-E1; E. coli for His-UBCH5b
Put plainly: Measurement of ubiquitinating enzyme activity (IκBα ubiquitination, time-resolved fluorescence with Eu(K)-labeled ubiquitin and XL665-labeled anti-GST antibody). The experiment is classed as biochemical. The gist of the method:
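Human SCF complex with E1 and UbcH5b ubiquitinated GST-IκBα pre-phosphorylated by IKKβ (2 mM ATP, pH 7.4, 1 h, RT), with Eu(K)-ubiquitin, 30 min RT. Stopped with EDTA, XL665 anti-GST added for 2 h; 665/620 nm TR-FRET ratio. % inhibition versus no-compound control and no-SCF blank gave IC50.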

Experiment [2] concerns ICAM-1 expression in HT-29 cells. Put plainly: Measurement of ICAM-1 expressing activity (TNFα-induced ICAM-1 expression, cell ELISA). Particulars: Homo sapiens, Table 6, cell activity inhibition test by method (3), read-out: EVALUATION (IC50 class, inhibition of cell activity). The experiment is classed as cell-based. Here is the method: Method 2: Measurement of ICAM-1 expressing activity
2.0 x 10^4 HT-29 cells (ATCC) were plated onto a 96-well plate, and the cells were cultured for 48 hours using a McCoy' 5A medium (GIBCO) containing 10% inactivated fetal calf serum. The culture medium was removed, a culture medium containing a compound to be evaluated (final DMSO concentration of 0.5%) was added, and this was incubated at 37°C for 30 minutes. Thirty ng/mL of human TNFα (GIBCO) was added, and this was incubated at 37°C for 4 hours. After washing once with a washing solution (PBS containing 0.05% Tween 20), ice-cooled methanol was added, and this was left on ice for 10 minutes and then fixed. After removing methanol, PBS containing 1% BSA was added, and blocking was performed by letting this stand at room temperature for 30 minutes. Anti-ICAM-1 antibody (Santa Cruz Biotechnology) was added, and this was left to stand at room temperature for 1 hour. After washing with the washing solution, POD-labeled secondary antibody was added, and this was left to stand at room temperature for 30 minutes. This was washed, 100 µL of 100 mM citric acid buffer (pH4.2) containing 1 mM TMBZ and 0.03% H2O2 was added, and this was reacted at room temperature for 15 minutes. The reaction was terminated with 100 µL of 2 N H2SO4, and the absorbance at 450 nm was measured using ARVO-HTS (Perkin Elmer).
When cells are stimulated with TNFα, IκBα is degraded after ubiquitination resulting in the activation of NFκB and the promotion of the expression of adhesion factor ICAM-1. Therefore, the suppression of ICAM-1 expression described above serves as an indicator to determine the effectiveness of the compound in the cells.
(ELISA stands for enzyme-linked immunosorbent assay.)

[3] abbreviates: enzyme activity inhibition test, method (1), Table 5, read-out: EVALUATION

Molecules are shown by their SMILES. Where two headings read alike, the source gives them in different places.

T1 sequence (Q9Y297 whole entry): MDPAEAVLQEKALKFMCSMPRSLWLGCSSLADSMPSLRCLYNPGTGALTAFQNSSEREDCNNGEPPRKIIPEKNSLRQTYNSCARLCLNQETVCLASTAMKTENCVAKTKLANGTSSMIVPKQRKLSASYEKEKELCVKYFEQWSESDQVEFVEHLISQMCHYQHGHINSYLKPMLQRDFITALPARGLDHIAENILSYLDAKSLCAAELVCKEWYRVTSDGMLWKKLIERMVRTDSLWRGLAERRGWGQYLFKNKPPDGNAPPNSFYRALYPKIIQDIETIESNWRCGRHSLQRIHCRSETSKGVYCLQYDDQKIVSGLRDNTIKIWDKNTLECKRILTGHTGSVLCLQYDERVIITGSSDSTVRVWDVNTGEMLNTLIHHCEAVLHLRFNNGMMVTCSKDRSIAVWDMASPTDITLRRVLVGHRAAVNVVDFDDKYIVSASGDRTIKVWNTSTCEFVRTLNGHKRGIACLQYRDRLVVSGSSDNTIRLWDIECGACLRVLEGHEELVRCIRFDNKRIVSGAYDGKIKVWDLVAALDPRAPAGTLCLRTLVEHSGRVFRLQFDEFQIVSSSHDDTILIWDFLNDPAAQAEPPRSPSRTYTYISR
T1 sequence (Q13616 whole entry): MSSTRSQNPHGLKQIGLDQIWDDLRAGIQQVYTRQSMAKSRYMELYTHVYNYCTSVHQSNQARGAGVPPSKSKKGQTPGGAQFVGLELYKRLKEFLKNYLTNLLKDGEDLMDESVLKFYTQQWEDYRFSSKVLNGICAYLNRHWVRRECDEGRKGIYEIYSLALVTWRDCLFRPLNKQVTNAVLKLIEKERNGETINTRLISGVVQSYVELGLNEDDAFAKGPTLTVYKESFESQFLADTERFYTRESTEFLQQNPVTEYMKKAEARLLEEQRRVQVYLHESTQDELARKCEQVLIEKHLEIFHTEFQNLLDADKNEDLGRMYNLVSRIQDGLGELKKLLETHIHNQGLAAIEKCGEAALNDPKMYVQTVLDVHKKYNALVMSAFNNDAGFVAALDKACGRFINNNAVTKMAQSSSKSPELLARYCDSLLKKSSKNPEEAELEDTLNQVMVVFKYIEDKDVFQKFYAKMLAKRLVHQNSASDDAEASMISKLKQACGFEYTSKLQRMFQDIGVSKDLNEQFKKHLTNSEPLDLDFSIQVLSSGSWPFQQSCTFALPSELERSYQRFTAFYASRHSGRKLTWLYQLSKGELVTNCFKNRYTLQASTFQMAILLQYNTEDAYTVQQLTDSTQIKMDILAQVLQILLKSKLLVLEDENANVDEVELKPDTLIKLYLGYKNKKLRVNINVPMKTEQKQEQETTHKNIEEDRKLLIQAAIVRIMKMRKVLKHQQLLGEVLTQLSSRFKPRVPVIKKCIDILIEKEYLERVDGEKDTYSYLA
T1 sequence (P63208 whole entry): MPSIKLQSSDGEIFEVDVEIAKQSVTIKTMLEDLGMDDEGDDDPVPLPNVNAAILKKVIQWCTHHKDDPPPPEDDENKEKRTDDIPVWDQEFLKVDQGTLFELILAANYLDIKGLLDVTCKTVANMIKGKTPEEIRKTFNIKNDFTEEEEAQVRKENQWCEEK
T1 sequence (P62877 whole entry): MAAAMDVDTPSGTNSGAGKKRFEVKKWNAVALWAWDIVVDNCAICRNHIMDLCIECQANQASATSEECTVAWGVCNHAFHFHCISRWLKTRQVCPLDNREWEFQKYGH

On to `CC1=NN(c2cccc(C(=O)O)c2)C(=O)/C1=C\c1ccc(N2CCN(C(=O)c3ccccc3)CC2)cc1` [Compound 440], for which the IC50 in experiment [1] (setting [3]) is under 10 µM; in experiment [2] it was 10 to 20 µM.
As to `CCCCC1=NN(c2ccc(C(=O)O)cc2)C(=O)/C1=C\c1ccc(N2CCN(C(=O)OC)CC2)cc1` [Compound 298], the IC50 in experiment [1] (setting [3]) was under 10 µM; in experiment [2], 10 to 20 µM.
For the compound `CC1=NN(c2cccc(C(=O)O)c2)C(=O)C1=Cc1cc2ccccc2o1` [Compound 428], the results for the IC50 in experiment [1] and in experiment [2] were 10 to 20 µM and under 40 µM, respectively.
With `CC1=NN(c2ccc(C(=O)O)cc2)C(=O)/C1=C\c1ccc(N2CCCCC2)cc1` [Compound 350], the IC50 in experiment [1] (setting [3]) is under 10 µM; in experiment [2], under 40 µM.
As to `CC1=NN(c2cccc(S(N)(=O)=O)c2)C(=O)/C1=C\c1ccc2[nH]ccc2c1` [Compound 134], the values for the IC50 in experiment [1] (setting [3]) and in experiment [2] were under 10 µM and under 40 µM, respectively.
For `COCC1=NN(c2ccc(C(=O)O)cc2)C(=O)/C1=C\c1ccc(-n2ccnc2)cc1` [Compound 238], in that order: under 10 µM and under 40 µM.
Consider `COCC1=NN(c2ccc(C(=O)O)cc2)C(=O)C1=Cc1ccc(OCc2ccccc2)c(OC)c1` [Compound 234, 4-[4-(Benzyloxy-3-methoxy-benzylidine)-3-methoxymethyl-5-oxo-4,5-dihydroxy-pyrazol-1-yl] benzoic acid], for which the IC50 in experiment [1] (read-out: EVALUATION, enzyme activity inhibition test, method (1), Table 5) was under 10 µM; in experiment [2], under 10 µM.
Regarding `COc1cc(C=C2C(=O)N(c3cccc4ccccc34)N=C2C)ccc1O` [Compound 195], the values for the IC50 in experiment [1] and in experiment [2] were under 10 µM and 10 to 20 µM, respectively.
Regarding `CC1=NN(c2ccc(S(N)(=O)=O)cc2)C(=O)/C1=C\c1cc2ccccc2o1` [Compound 168], the IC50 was under 10 µM in experiment [1] (setting [3]) and 10 to 20 µM in experiment [2].
Take `CC1=NN(c2ccc(C(=O)O)cc2)C(=O)/C1=C\c1ccc(NC(=O)c2ccccc2)cc1` [Compound 544]: the results for the IC50 in experiment [1] (setting [3]) and in experiment [2] were under 10 µM and under 40 µM, respectively.
`COc1ccc(C2=NN(c3ccc(C(=O)O)cc3)C(=O)/C2=C\c2ccc3c(c2)OCCO3)cc1OC` [Compound 283]: the IC50 in experiment [1] (setting [3]) and in experiment [2] was under 10 µM in each case.
For `CC1=NN(c2ccccc2)C(=O)/C1=C\c1ccc(-c2ccccc2F)o1` [Compound 19], the IC50 in experiment [1] (setting [3]) is under 10 µM; in experiment [2], under 40 µM.
In the case of `COCCC1=NN(c2ccc(C(=O)O)cc2)C(=O)/C1=C\c1ccc(-c2cnn(C)c2)o1` [Compound 512], the results for the IC50 in experiment [1] (setting [3]) and in experiment [2] were 10 to 20 µM and under 40 µM, respectively.
For `COc1cc(/C=C2\C(=O)N(c3ccc(C(=O)O)cc3)N=C2C)ccc1OCC(=O)OC(C)(C)C` [Compound 346], the IC50 was under 10 µM in experiment [1] (setting [3]) and 10 to 20 µM in experiment [2].
In the case of `O=C(O)c1ccc(N2N=C(C3CC3)/C(=C/c3ccc4[nH]ccc4c3)C2=O)cc1` [Compound 482], the IC50 is under 10 µM in experiment [1] (setting [3]) and under 40 µM in experiment [2].
Regarding `COc1ccccc1-c1ccc(/C=C2\C(=O)N(c3ccc(C(=O)O)cc3)N=C2c2ccoc2)o1` [Compound 483], the IC50 was under 10 µM in experiment [1] (setting [3]) and 10 to 20 µM in experiment [2].
`CCOC(=O)c1ccccc1-c1ccc(/C=C2\C(=O)N(c3ccc(C(=O)O)cc3)N=C2C)o1` [Compound 527]: the IC50 in experiment [1] (setting [3]) and in experiment [2] was under 10 µM throughout.
Consider `CC1=NN(c2ccc(C(=O)O)cc2)C(=O)/C1=C\c1ccc2c(ccn2CC2CCCCC2)c1` [Compound 498], for which the IC50 in experiment [1] (setting [3]) was under 10 µM; in experiment [2], under 40 µM.
Regarding `COCC1=NN(c2ccc(C(=O)O)cc2)C(=O)/C1=C\c1ccc(CO)o1` [Compound 328], the IC50 in experiment [1] (setting [3]) and in experiment [2] was under 10 µM throughout.
As to `Cn1cc(-c2ccc(/C=C3\C(=O)N(Cc4cccc(O)c4)N=C3c3ccoc3)o2)cn1` [Compound 188], the results for the IC50 in experiment [1] (setting [3]) and in experiment [2] were 10 to 20 µM and under 40 µM, respectively.
For `CCCCC1=NN(c2ccc(C(=O)O)cc2)C(=O)/C1=C\c1ccc(-n2ccnc2)cc1` [Compound 302] the same measures were under 10 µM and 10 to 20 µM.
In the case of `COc1ccc(C2=NN(c3ccc(C(=O)O)cc3)C(=O)/C2=C\c2ccc(N3CCCC3)cc2)cc1OC` [Compound 281], the IC50 in experiment [1] (setting [3]) was under 10 µM; in experiment [2], 10 to 20 µM.
For `CCCCC1=NN(c2ccccc2)C(=O)/C1=C\c1ccc(N2CCN(C(=O)OC)CC2)cc1` [Compound 54] the same measures were 10 to 20 µM and under 40 µM.
With `CCCCC1=NN(c2ccc(C(=O)O)cc2)C(=O)/C1=C\c1ccc(-n2cncn2)cc1` [Compound 306], the IC50 in experiment [1] (setting [3]) and in experiment [2] was 10 to 20 µM throughout.
Turning to `COCCC1=NN(c2cccc(C(=O)O)c2)C(=O)/C1=C\c1ccc(-c2cnn(C)c2)o1` [Compound 505], the IC50 in experiment [1] (setting [3]) is 10 to 20 µM; in experiment [2], under 40 µM.
In the case of `O=C1/C(=C\c2ccc3c(c2)OCCO3)C(C2CC2)=NN1c1ccccc1` [Compound 77], the IC50 in experiment [1] (setting [3]) was under 10 µM; in experiment [2] it was under 40 µM.
On to `COc1cc(/C=C2\C(=O)N(c3ccccc3)N=C2C)ccc1OCC(=O)OC(C)(C)C` [Compound 125], for which the IC50 in experiment [1] (setting [3]) was 10 to 20 µM; in experiment [2], under 40 µM.
For `O=C(O)c1ccc(N2N=C(c3ccoc3)/C(=C/c3ccc(N4CCCC4)cc3)C2=O)cc1` [Compound 248], the IC50 was under 10 µM in experiment [1] (setting [3]) and 10 to 20 µM in experiment [2].
Take `CC1=NN(c2ccc(C(=O)O)cc2)C(=O)/C1=C\c1ccc(OCC(N)=O)cc1` [Compound 536]: the IC50 in experiment [1] (setting [3]) was under 10 µM; in experiment [2], 10 to 20 µM.
As for `O=C1/C(=C\c2ccc3ccccc3c2)C(C2CC2)=NN1c1ccccc1` [Compound 70], the IC50 was 10 to 20 µM in experiment [1] (setting [3]) and under 40 µM in experiment [2].
With `COC(=O)N1CCN(c2ccc(C=C3C(=O)N(c4ccc(C(=O)O)cc4)N=C3C3CC3)cc2)CC1` [Compound 315], the IC50 in experiment [1] and in experiment [2] was under 10 µM throughout.
With `CC1=NN(c2ccc(S(N)(=O)=O)cc2)C(=O)/C1=C\c1ccc(N2CCCCC2)cc1` [Compound 126], the IC50 in experiment [1] (setting [3]) and in experiment [2] was 10 to 20 µM each time.
Consider `CCCNC(=O)COc1ccc(C=C2C(=O)N(c3ccc(S(N)(=O)=O)cc3)N=C2C)cc1` [Compound 211], for which the IC50 in experiment [1] is 10 to 20 µM; in experiment [2] it was under 40 µM.
With `CC1=NN(c2cccc(C(=O)O)c2)C(=O)/C1=C\c1ccc(N2CCCC2)cc1` [Compound 472], the IC50 in experiment [1] (setting [3]) and in experiment [2] was 10 to 20 µM each time.
For the compound `CC1=NN(c2ccc(S(N)(=O)=O)cc2)C(=O)C1=Cc1ccc(NC(=O)c2ccc3ccccc3c2)cc1` [Compound 227], the IC50 in experiment [1] was under 10 µM; in experiment [2], 10 to 20 µM.
On to `CC1=NN(c2ccc(S(N)(=O)=O)cc2)C(=O)/C1=C\c1ccc(C(C)(C)C)cc1` [Compound 115], for which the IC50 in experiment [1] (setting [3]) was under 10 µM; in experiment [2] it was 10 to 20 µM.
For `CC1=NN(c2ccc(C(=O)O)cc2)C(=O)/C1=C\c1ccc2c(ccn2Cc2csc(C)n2)c1` [Compound 500], the results for the IC50 in experiment [1] (setting [3]) and in experiment [2] were under 10 µM and under 40 µM, respectively.
For `CC1=NN(c2cccc(C(=O)O)c2)C(=O)C1=Cc1ccc(N2CCN(c3ccccc3)CC2)cc1` [Compound 423], in that order: under 10 µM and under 40 µM.
Consider `CCCCC1=NN(c2ccc(C(=O)O)cc2)C(=O)/C1=C\c1ccc(N2CCN(C)CC2)cc1` [Compound 340], for which the IC50 was under 10 µM in experiment [1] (setting [3]) and 10 to 20 µM in experiment [2].
